{"source": "ChEMBL document CHEMBL4699524", "about": "(Bioorg Med Chem Lett, 2020)", "key": {"[1]": {"test_system": "Plasmodium falciparum", "test": "Antiplasmodial activity against chloroquine-sensitive Plasmodium falciparum NF54 by LDH assay", "format": "functional, organism-based"}, "[2]": {"test_system": "Plasmodium falciparum", "test": "Antiplasmodial activity against chloroquine-resistant Plasmodium falciparum Dd2 by LDH assay", "format": "functional, organism-based"}, "[3]": {"test_system": "CHO", "test": "Cytotoxicity against CHO cells assessed as reduction in cell viability by MTT assay", "format": "cell-based", "details": "Cricetulus griseus"}, "[4]": {"test_system": "Leishmania donovani", "test": "Antileishmanial activity against Leishmania donovani 1S promastigotes assessed as inhibition of parasite growth incubated for 72 hrs by resazurin dye based assay", "format": "functional, organism-based"}, "[5]": {"test_system": "Leishmania donovani", "test": "Antileishmanial activity against Leishmania donovani 9515 promastigotes assessed as inhibition of parasite growth incubated for 72 hrs by resazurin dye based assay", "format": "functional, organism-based", "details": "Leishmania donovani, 9515, 72 h"}, "[6]": {"test_system": "Leishmania major", "test": "Antileishmanial activity against Leishmania major IR-173 promastigotes assessed as inhibition of parasite growth incubated for 72 hrs by resazurin dye based assay", "format": "functional, organism-based", "details": "IR-173, 72 h"}, "[7]": {"test": "Selectivity index, ratio of IC50 for CHO cells to IC50 for antileishmanial activity against Leishmania donovani 9515 by resazurin dye based assay", "format": "toxicity", "details": "hamster, read-out: Ratio IC50"}, "[8]": {"test": "Selectivity index, ratio of IC50 for CHO cells to IC50 for antileishmanial activity against Leishmania donovani 1S by resazurin dye based assay", "format": "toxicity", "details": "hamster, read-out: Ratio IC50"}, "[9]": {"test_system": "Leishmania donovani", "test": "Potency index, ratio of dihydroartemisinin IC50 to test compound IC50 for antileishmanial activity against Leishmania donovani 1S promastigotes incubated for 72 hrs by resazurin dye based assay", "format": "functional"}, "[10]": {"test_system": "Leishmania donovani", "test": "Potency index, ratio of dihydroartemisinin IC50 to test compound IC50 for antileishmanial activity against Leishmania donovani 9515 promastigotes incubated for 72 hrs by resazurin dye based assay", "format": "functional"}, "[11]": {"test_system": "Leishmania donovani", "test": "Potency index, ratio of artemether IC50 to test compound IC50 for antileishmanial activity against Leishmania donovani 1S promastigotes incubated for 72 hrs by resazurin dye based assay", "format": "functional"}, "[12]": {"test_system": "Leishmania donovani", "test": "Potency index, ratio of artemether IC50 to test compound IC50 for antileishmanial activity against Leishmania donovani 9515 promastigotes incubated for 72 hrs by resazurin dye based assay", "format": "functional"}, "[13]": {"test_system": "Leishmania donovani", "test": "Potency index, ratio of artesunate IC50 to test compound IC50 for antileishmanial activity against Leishmania donovani 1S promastigotes incubated for 72 hrs by resazurin dye based assay", "format": "functional"}, "[14]": {"test_system": "Leishmania donovani", "test": "Potency index, ratio of artesunate IC50 to test compound IC50 for antileishmanial activity against Leishmania donovani 9515 promastigotes incubated for 72 hrs by resazurin dye based assay", "format": "functional"}, "[15]": {"test": "in vitro", "details": "hamster, CHO cells"}, "[16]": {"test": "Selectivity index, ratio of IC50 for antileishmanial activity against Leishmania major IR-173 promastigotes to IC50 for antileishmanial activity against Leishmania donovani 1S promastigotes incubated for 72 hrs by resazurin dye based assay", "format": "functional"}, "[17]": {"test": "Selectivity index, ratio of IC50 for antileishmanial activity against Leishmania major IR-173 promastigotes to IC50 for antileishmanial activity against Leishmania donovani 9515 promastigotes incubated for 72 hrs by resazurin dye based assay", "format": "functional"}}}
{"smiles": "Cc1csc(C(=O)OCC2(C)O[C@@H]3O[C@@]4(C)CC[C@H]5[C@H](C)CC[C@@H]2[C@@]35OO4)c1", "note": "(stereo partly specified)", "values": [{"measurement": "IC50", "setting": "[1]", "result": 0.0072, "unit": "µM"}, {"measurement": "IC50", "setting": "[2]", "result": 0.0071, "unit": "µM"}, {"measurement": "IC50", "setting": "[3]", "result": "> 100", "unit": "µM"}, {"measurement": "IC50", "setting": "[4]", "result": 5.61, "unit": "µM"}, {"measurement": "IC50", "setting": "[5]", "result": 6.48, "unit": "µM"}, {"measurement": "IC50", "setting": "[6]", "result": 4.26, "unit": "µM"}, {"measurement": "selectivity ratio", "setting": "[7]", "result": 18}, {"measurement": "selectivity ratio", "setting": "[8]", "result": "> 15"}, {"measurement": "Ratio IC50", "setting": "[9]", "result": 30}, {"measurement": "Ratio IC50", "setting": "[10]", "result": 30}, {"measurement": "Ratio IC50", "setting": "[11]", "result": 30}, {"measurement": "Ratio IC50", "setting": "[12]", "result": 30}, {"measurement": "Ratio IC50", "setting": "[13]", "result": 30}, {"measurement": "Ratio IC50", "setting": "[14]", "result": 30}, {"measurement": "selectivity ratio", "setting": "[15]", "result": 24}]}
{"smiles": "C[C@@H]1CC[C@H]2C(C)(C=O)O[C@@H]3O[C@@]4(C)CC[C@@H]1[C@]32OO4", "note": "(stereo partly specified)", "values": [{"measurement": "IC50", "setting": "[1]", "result": 0.0069, "unit": "µM"}, {"measurement": "IC50", "setting": "[2]", "result": 0.0041, "unit": "µM"}, {"measurement": "IC50", "setting": "[3]", "result": "> 100", "unit": "µM"}, {"measurement": "IC50", "setting": "[4]", "result": 8.07, "unit": "µM"}, {"measurement": "IC50", "setting": "[5]", "result": 2.55, "unit": "µM"}, {"measurement": "IC50", "setting": "[6]", "result": 26.6, "unit": "µM"}, {"measurement": "selectivity ratio", "setting": "[7]", "result": 13}, {"measurement": "selectivity ratio", "setting": "[8]", "result": "> 39"}, {"measurement": "Ratio IC50", "setting": "[16]", "result": 3}, {"measurement": "Ratio IC50", "setting": "[17]", "result": 3}, {"measurement": "selectivity ratio", "setting": "[15]", "result": 4}]}
